These results are taken from patent EP2656853A1, “METHOD FOR TREATING ACUTE CEREBRAL AND SPINAL BLOOD FLOW DISORDERS OF AN ISCHAEMIC OR HA[…]” (Zakrytoe Aktsionernoe Obschestvo "Pharm-Sintez", priority 2010, dated 2012).

Data set [1] relates to murine bone marrow cells. Conditions: positive control, 20 mg/kg intraperitoneally, male mice.
Source text: The Study purpose was to reveal and quantitatively assess the cytogenetic activity (mutagenicity) of the pharmacologic drugs in the mammalian bone marrow polychromatophils. The method's base is the micronuclei cells microscopic registration.
The experimental used the male and female F1(CBAx C57BI6/J) hybrid mice, two-month age, 18 to 20 grams body weight. Every group included 6 animals. The animals were kept under the 12-hour light regime, with freely available water and food. The single and five fold administration protein-polypeptide complex mutagenicity assessment animal experiments were in compliance with the official protocols. Three experimental series with relevant controls were performed: therapeutic dosage: males, single administration; subtoxic dosage: males, single administration; and therapeutic dosage: males and females, five fold administration. […]
(§1) The bone marrow cells preparations for the micronuclei account were made in conventional manner, in accordance with the "Micronuclear Test Environmental Factors Mutagenicity Assessment in Mammalian Organs Cells" Guidelines. […] 2000 polychromatophils per animal were then analyzed with coded preparations. At the 500 erythrocytes count the polychromatophil to normochromatic erythrocytes ratio was determined.
For data set [2], the system named is murine bone marrow cells. The conditions noted are these: positive control, 20 mg/kg intraperitoneally, male mice. The source holds these as a separate data set.
Source text: The Study purpose is to reveal and quantitatively assess the cytogenetic activity (mutagenicity) of the pharmacologic drugs in the mammalian bone marrow polychromatophils. The method's base is the micronuclei cells microscopic registration.
The experimental used the male and female F1(CBAx C57BI6/J) hybrid mice, two-month age, 18 to 20 grams body weight. Every group included 6 animals. The animals were kept under the 12-hour light regime, with freely available water and feed. The single and five fold administration protein-polypeptide complex mutagenicity assessment animal experiments were in compliance with the official protocols. Three experimental series with relevant controls were performed: therapeutic dosage: males, single administration; subtoxic dosage: males, single administration; and therapeutic dosage: males and females, five fold administration. […]
as §1

On to `O=P1(N(CCCl)CCCl)NCCCO1` (stereo not shown) [cyclophosphamide], for which the “higher micronuclei cells vs. control” value with murine bone marrow cells [1] was determined as 19.6 fold. In addition, the micronuclei cells with murine bone marrow cells [1] (control 3.16‰) is given as 62.1 ‰. Further, the “higher micronuclei cells count vs. control” value with murine bone marrow cells [2] is given as 19.6 fold. In addition, the micronuclei cells count in the data set with murine bone marrow cells [2] (control 3.16‰) was 62.1 ‰.
